Experimental data reported in ChEMBL document CHEMBL1201862, “PubChem BioAssay data set” (2004).
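1) Cells in 96-well plates. 2) Compound, 48 h, 5 concentrations. 3) Linear interpolation between surrounding doses. 4) Unreached endpoint = highest concentration. Here, GI50 denotes the concentration required for 50% inhibition of growth.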 Calls of active or inactive are those of the source. No stated cut-off is given here; in the data, active = GI50 up to about 1.1 µM and inactive = higher.

Key:
Assay in all cases: NCI-60 cell line screen, 48 h
UO-31 = test system: UO-31
A498 = test system: A498
OVCAR-5 = test system: OVCAR-5
RPMI-8226 = test system: RPMI-8226
HCT-15 = test system: HCT-15
A549 = test system: A549
EKVX = test system: EKVX
SNB-75 = test system: SNB-75
LXFL 529 = test system: LXFL 529
SF-268 = test system: SF-268
SK-MEL-28 = test system: SK-MEL-28
TK-10 = test system: TK-10
OVCAR-8 = test system: OVCAR-8
SF-539 = test system: SF-539
NCI-H460 = test system: NCI-H460
COLO 205 = test system: COLO 205
UACC-257 = test system: UACC-257
NCI/ADR-RES = test system: NCI/ADR-RES
Hs-578T = test system: Hs-578T
MDA-MB-231 = test system: MDA-MB-231

SMILES	GI50 (UO-31)	GI50 (A498)	GI50 (OVCAR-5)	GI50 (RPMI-8226)	GI50 (HCT-15)	GI50 (A549)	GI50 (EKVX)	GI50 (SNB-75)	GI50 (LXFL 529)	GI50 (SF-268)	GI50 (SK-MEL-28)	GI50 (TK-10)	GI50 (OVCAR-8)	GI50 (SF-539)	GI50 (NCI-H460)	GI50 (COLO 205)	GI50 (UACC-257)	GI50 (NCI/ADR-RES)	GI50 (Hs-578T)	GI50 (MDA-MB-231)
COc1ccc(C(=O)CC2=Nc3nnc(CCCCCCCc4nnc5n4C(=O)C(CC(=O)c4ccc(OC)cc4)=N5)n3C2=O)cc1	> 100 µM (inactive)	> 100 µM (inactive)	> 100 µM (inactive)	> 100 µM (inactive)	> 100 µM	> 100 µM (inactive)	> 100 µM (inactive)	31.6 µM (inactive)	> 100 µM (inactive)	> 100 µM (inactive)	> 100 µM (inactive)	> 100 µM (inactive)	> 100 µM (inactive)	> 100 µM (inactive)	> 100 µM (inactive)	> 100 µM (inactive)	> 100 µM (inactive)			
CCOC(=O)C(=O)CC1=Nc2ccccc2SC(c2cccc(C)c2)C1 (configuration not stated)	15.4 µM (inactive)	18.1 µM (inactive)	16.8 µM (inactive)	23.7 µM (inactive)	18.2 µM	21.2 µM (inactive)	21.5 µM (inactive)	18.9 µM (inactive)	18.1 µM (inactive)	16.8 µM (inactive)	14.6 µM (inactive)		12.6 µM (inactive)	19 µM (inactive)	19.5 µM (inactive)	> 10 µM (inactive)	19 µM (inactive)			
O=C(O)c1ccc([C@@H]2C(=O)N(O)[C@@H]3C=CC[C@@H]32)cc1	> 100 µM (inactive)			> 100 µM (inactive)	> 100 µM	> 100 µM (inactive)	> 100 µM (inactive)	> 100 µM (inactive)	> 100 µM (inactive)	> 100 µM (inactive)	> 100 µM (inactive)	> 100 µM (inactive)	> 100 µM (inactive)	> 100 µM (inactive)		> 100 µM (inactive)	> 100 µM (inactive)			
COc1cc(C2C(C(=O)Nc3ccc(Cl)c(Cl)c3)=C(C)NC(C)=C2C(=O)Nc2ccc(Cl)c(Cl)c2)ccc1O	12 µM (inactive)	12.2 µM (inactive)	19.4 µM (inactive)	3.89 µM (inactive)		12.8 µM (inactive)	10.3 µM (inactive)	10.3 µM (inactive)	9.27 µM (inactive)	11.7 µM (inactive)	13.9 µM (inactive)	19.1 µM (inactive)	13.9 µM (inactive)	10.2 µM (inactive)	12.8 µM (inactive)	13.3 µM (inactive)	13.8 µM (inactive)			
COc1cc2c(cc1OC)C(C#N)N(C(=O)c1ccccc1)C=C2OC(=O)c1ccccc1 (configuration not stated)	20.4 µM (inactive)		> 100 µM (inactive)	39.2 µM (inactive)	32.1 µM		28.7 µM (inactive)	17 µM (inactive)	20.6 µM (inactive)	30.8 µM (inactive)	22.9 µM (inactive)	27.1 µM (inactive)	27.9 µM (inactive)	19.1 µM (inactive)	36.4 µM (inactive)	46.6 µM (inactive)	23.4 µM (inactive)			
C[n+]1c2ccccc2n2c3ccccc3c(NCCc3ccccn3)c(C#N)c21	1.76 µM (inactive)	4.4 µM (inactive)	2 µM (inactive)	1.64 µM (inactive)	2.33 µM	3.62 µM (inactive)	4.06 µM (inactive)	1.38 µM (inactive)		2.36 µM (inactive)	2.32 µM (inactive)	1.14 µM (inactive)	1.18 µM (inactive)	1.99 µM (inactive)	1.04 µM (active)	1.68 µM (inactive)	3.5 µM (inactive)	13.8 µM (inactive)	2.81 µM (inactive)	1.42 µM (inactive)
C/C=C(/CCCCNCCCC)[Si](C)(C)C	17.5 µM (inactive)	15.5 µM (inactive)	14.4 µM (inactive)		14.4 µM	15.3 µM (inactive)	12.4 µM (inactive)	13.5 µM (inactive)	15.9 µM (inactive)	12.3 µM (inactive)	15.8 µM (inactive)	15 µM (inactive)	15.7 µM (inactive)	14.9 µM (inactive)	15.6 µM (inactive)	11 µM (inactive)	15.2 µM (inactive)			
Cn1cc(NC(=O)c2cc(NC(=O)Nc3cc(C(=O)Nc4cc(C(=O)NCCC(=N)N)n(C)c4)n(C)c3)cn2C)cc1C(=O)NCCC(=N)N	33.1 µM (inactive)	25.1 µM (inactive)	> 100 µM (inactive)		> 100 µM	29.4 µM (inactive)	52.2 µM (inactive)	40.5 µM (inactive)	56.5 µM (inactive)	36.4 µM (inactive)	25.4 µM (inactive)	22.5 µM (inactive)	22.8 µM (inactive)	18 µM (inactive)	17.3 µM (inactive)	33 µM (inactive)	17.7 µM (inactive)			
Nc1nc2c(N)cc(C(F)(F)F)cc2nc1-c1ccccc1	> 100 µM (inactive)	> 100 µM (inactive)	> 100 µM (inactive)		> 100 µM	> 100 µM (inactive)	4 µM (inactive)	27.2 µM (inactive)	64.9 µM (inactive)	> 100 µM (inactive)	> 100 µM (inactive)	> 100 µM (inactive)	> 100 µM (inactive)	> 100 µM (inactive)	> 100 µM (inactive)	> 100 µM (inactive)	> 100 µM (inactive)			
C=C1CC(C/C=C(\C)CC2CC(=C)C(=O)O2)OC1=O (configuration not stated)	> 100 µM (inactive)	> 100 µM (inactive)	> 100 µM (inactive)		> 100 µM	> 100 µM (inactive)	> 100 µM (inactive)	> 100 µM (inactive)	> 100 µM (inactive)	> 100 µM (inactive)	> 100 µM (inactive)	> 100 µM (inactive)	> 100 µM (inactive)	> 100 µM (inactive)	> 100 µM (inactive)	> 100 µM (inactive)	> 100 µM (inactive)			
CC(C)(C)OC(=O)N[C@H]1CC(=O)c2ccccc2N(CC(=O)O)C1=O	> 100 µM (inactive)				> 100 µM	> 100 µM (inactive)	> 100 µM (inactive)	81.1 µM (inactive)	> 100 µM (inactive)	> 100 µM (inactive)	> 100 µM (inactive)	> 100 µM (inactive)	> 100 µM (inactive)	> 100 µM (inactive)	> 100 µM (inactive)	> 100 µM (inactive)	> 100 µM (inactive)			
CC(=O)O[C@]12CCC[C@H]1C1(O)C(O)CCC[C@H]12 (some centres not stated)	> 100 µM (inactive)			> 100 µM (inactive)	> 100 µM	> 100 µM (inactive)	> 100 µM (inactive)	> 100 µM (inactive)	> 100 µM (inactive)	> 100 µM (inactive)	> 100 µM (inactive)	> 100 µM (inactive)	> 100 µM (inactive)		> 100 µM (inactive)	> 100 µM (inactive)	> 100 µM (inactive)			
Cc1ccc(-n2c(=S)[nH]c3ccc(Br)cc3c2=O)cc1	> 100 µM (inactive)	> 100 µM (inactive)	> 100 µM (inactive)	> 100 µM (inactive)	> 100 µM	> 100 µM (inactive)	> 100 µM (inactive)	> 100 µM (inactive)	> 100 µM (inactive)	> 100 µM (inactive)		> 100 µM (inactive)	> 100 µM (inactive)	> 100 µM (inactive)	> 100 µM (inactive)	> 100 µM (inactive)	> 100 µM (inactive)			
COc1ccc(CCNC(=O)[C@H]2CCCC[C@@H]2CCO)cc1OC	54.7 µM (inactive)	> 100 µM (inactive)	> 100 µM (inactive)	> 100 µM (inactive)	> 100 µM	> 100 µM (inactive)	> 100 µM (inactive)	88.7 µM (inactive)		> 100 µM (inactive)	> 100 µM (inactive)	> 100 µM (inactive)	> 100 µM (inactive)	> 100 µM (inactive)	> 100 µM (inactive)	> 100 µM (inactive)	> 100 µM (inactive)	> 100 µM (inactive)	> 100 µM (inactive)	> 100 µM (inactive)
CC1CC(=O)C(C(O)CC2CC(=O)N(c3ccccc3)C(=O)C2)C(C)C1 (configuration not stated)	> 100 µM (inactive)	> 100 µM (inactive)	> 100 µM (inactive)	> 100 µM (inactive)		> 100 µM (inactive)	> 100 µM (inactive)	> 100 µM (inactive)	> 100 µM (inactive)	> 100 µM (inactive)	> 100 µM (inactive)	> 100 µM (inactive)	> 100 µM (inactive)	> 100 µM (inactive)	> 100 µM (inactive)	> 100 µM (inactive)	> 100 µM (inactive)			
c1ccc2c(c1)CCC/C2=N\OCC1CO1 (configuration not stated)	38.6 µM (inactive)	82 µM (inactive)	> 100 µM (inactive)	55.1 µM (inactive)	> 100 µM	> 100 µM (inactive)	> 100 µM (inactive)	> 100 µM (inactive)	64.3 µM (inactive)	52.4 µM (inactive)		> 100 µM (inactive)	81.7 µM (inactive)	> 100 µM (inactive)	> 100 µM (inactive)	> 100 µM (inactive)	> 100 µM (inactive)			
COC(=O)C(Cc1cc(OC)c(OC)c(OC)c1)c1ccc(OC)cc1 (configuration not stated)	> 100 µM (inactive)	> 100 µM (inactive)	44.7 µM (inactive)	44.7 µM (inactive)	> 100 µM	> 100 µM (inactive)	> 100 µM (inactive)		54.7 µM (inactive)	> 100 µM (inactive)	> 100 µM (inactive)	> 100 µM (inactive)	> 100 µM (inactive)	> 100 µM (inactive)	> 100 µM (inactive)	> 100 µM (inactive)	> 100 µM (inactive)			
